Laboratory results reported in patent publication US20220202783A1, “Use Of ADAM9 Inhibitor As Immunomodulator” (China Medical University, priority 2019, published 2022).

Columns and labels:
[1] = system: lung cancer brain metastatic cell line-Bm7brmx2; experiment: anoikis in anchorage-free culture, Bm7brmx2; format: cell-based; conditions: read-out: IC50 value for anoikis (anchorage-free induced apoptosis)
Description: (§1) To ensure the compound SW1 and the compound SW2 in blocking anoikis-resistance of cancer cells, the IC50 value (unit is μM) of the compound SW1 and the compound SW2 for anoikis (anchorage-free induced apoptosis) in lung cancer brain metastatic cell line-Bm7brmx2, breast cancer brain metastatic cell line-MDA-231 brm and leukocytes in anchorage-free culture conditions were determined.

PC-080 = experiment: cytotoxicity on pancreatic cancer cells, PC-080; format: cell-based; conditions: Pancreatic cancer cell
Description: (§2) In addition, the IC50 values (unit is μM) of the compound SW1 and the compound SW2 on pancreatic cancer cells were measured in the experiment.

HPAC-GFP-Luc = experiment: cytotoxicity on pancreatic cancer cells, HPAC-GFP-Luc; format: cell-based; conditions: Pancreatic cancer cell
Description: as §2

PE10 WBC = experiment: cytotoxicity assay in PE10 WBC; format: cell-based; set-up: key to effect of inhibiting tumor cell growth: “+” represents that the compound has the effect of inhibiting tumor cell growth
TC1-WT lung cancer cells [2] = experiment: colony-forming assay, TC1; format: cell-based; conditions: 10 μM
Description: (§3) To further test the planting efficiency of tumor cells treated with the compound SW1 and the compound SW2, in the experiment, control Bm7 lung cancer cells (treated with shGFP) and ADAM9 KO Bm7 lung cancer cells (treated with shADAM9) were treated with 20 μM of the compound SW1 or the compound SW2 respectively, and TC1-wild-type (WT) lung cancer cells and TC1-ADAM9 KO lung cancer cells were treated with 10 μM of the compound SW1 or the compound SW2 respectively. Then colony-forming assay was used to confirm the planting efficiency of each test group. Please refer to FIGS. 2D and 2E, wherein mock represents the tumor cell lines without treatment of the compound SW1 or the compound SW2. Representative images of colony-forming assay are shown at the bottom, and data are means±SD of 6 separate wells.

[3] = system: lung cancer cells (H1299); experiment: cytotoxicity assay in H1299 cells; format: cell-based; set-up: key to effect of inhibiting tumor cell growth: “+” represents that the compound has the effect of inhibiting tumor cell growth; conditions: for effect of inhibiting tumor cell growth: H1299; for IC50: Homo sapiens, NCI-H1299
Method in brief: (§4)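 Cells are treated with each Formula (I) compound, viability loss is measured, and the IC50 is derived.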

Panc-1 = experiment: cytotoxicity on pancreatic cancer cells, Panc-1; format: cell-based; conditions: Homo sapiens
Description: as §2

[4] = system: lung cancer cells (Bm7brmx2-1st); experiment: cytotoxicity assay in Bm7brmx2-1st cells; format: cell-based; set-up: key to effect of inhibiting tumor cell growth: “+” represents that the compound has the effect of inhibiting tumor cell growth
Method in brief: as §4

[5] = system: breast cancer cells (231-brm); experiment: cytotoxicity assay in 231-brm cells; format: cell-based; set-up: key to effect of inhibiting tumor cell growth: “+” represents that the compound has the effect of inhibiting tumor cell growth
TC1-WT lung cancer cells [6] = experiment: Annexin V and PI staining for cell apoptosis; format: cell-based; conditions: 24 hours, compared with TC1-ADAM9 KO lung cancer cells
Description: In the experiment, TC1-WT lung cancer cells and TC1-ADAM9 KO lung cancer cells were further treated with the compound SW1 or the compound SW2 for 24 hours, and then stained with Annexin V and PI to detect cell apoptosis. Please refer to FIG. 2F, where the percentage of Annexin V+ cells (apoptotic cells) is the statistical result from three independent experiments, with mean±SD.

[7] = system: control Bm7 lung cancer cells; experiment: colony-forming assay, Bm7; format: cell-based; conditions: 20 μM, control Bm7 lung cancer cells (shGFP)
Description: as §3

Pan18-GFP-Luc = experiment: cytotoxicity on pancreatic cancer cells, Pan18-GFP-Luc; format: cell-based; conditions: Pancreatic cancer cell
Description: as §2

Bm7 lung cancer cells = experiment: migration inhibition assay; format: cell-based; conditions: 25 μM, control Bm7 lung cancer cells (shGFP)
Description: To further evaluate the specificity of the compound SW1 and the compound SW2, control Bm7 lung cancer cells (treated with shGFP) and ADAM9 knockout (KO) Bm7 lung cancer cells (treated with shADAM9) were treated with 25 μM of the compound SW1 or the compound SW2, respectively, and then performed a migration inhibition assay.

HNOF = experiment: cytotoxicity assay in HNOF cells; format: cell-based; set-up: key to effect of inhibiting tumor cell growth: “+” represents that the compound has the effect of inhibiting tumor cell growth; conditions: HNOF
[8] = cytotoxicity assay in HNOF cells; format: cell-based; set-up: key to effect of inhibiting tumor cell growth: “+” represents that the compound has the effect of inhibiting tumor cell growth; conditions: human, HNOF cells
lung cancer cells (A549) = experiment: cytotoxicity assay in A549 cells; format: cell-based; set-up: key to effect of inhibiting tumor cell growth: “+” represents that the compound has the effect of inhibiting tumor cell growth; conditions: for IC50: Homo sapiens
Method in brief: as §4

recombinant human ADAM9 = biological target: T1, recombinant human ADAM9 (Homo sapiens, UniProt Q13443); experiment: ADAM9 enzymatic activity ELISA with fluorescent peptide substrate; format: biochemical; conditions: different concentrations
T1 construct: purchased R&D system
T1 sequence (Q13443 29-819): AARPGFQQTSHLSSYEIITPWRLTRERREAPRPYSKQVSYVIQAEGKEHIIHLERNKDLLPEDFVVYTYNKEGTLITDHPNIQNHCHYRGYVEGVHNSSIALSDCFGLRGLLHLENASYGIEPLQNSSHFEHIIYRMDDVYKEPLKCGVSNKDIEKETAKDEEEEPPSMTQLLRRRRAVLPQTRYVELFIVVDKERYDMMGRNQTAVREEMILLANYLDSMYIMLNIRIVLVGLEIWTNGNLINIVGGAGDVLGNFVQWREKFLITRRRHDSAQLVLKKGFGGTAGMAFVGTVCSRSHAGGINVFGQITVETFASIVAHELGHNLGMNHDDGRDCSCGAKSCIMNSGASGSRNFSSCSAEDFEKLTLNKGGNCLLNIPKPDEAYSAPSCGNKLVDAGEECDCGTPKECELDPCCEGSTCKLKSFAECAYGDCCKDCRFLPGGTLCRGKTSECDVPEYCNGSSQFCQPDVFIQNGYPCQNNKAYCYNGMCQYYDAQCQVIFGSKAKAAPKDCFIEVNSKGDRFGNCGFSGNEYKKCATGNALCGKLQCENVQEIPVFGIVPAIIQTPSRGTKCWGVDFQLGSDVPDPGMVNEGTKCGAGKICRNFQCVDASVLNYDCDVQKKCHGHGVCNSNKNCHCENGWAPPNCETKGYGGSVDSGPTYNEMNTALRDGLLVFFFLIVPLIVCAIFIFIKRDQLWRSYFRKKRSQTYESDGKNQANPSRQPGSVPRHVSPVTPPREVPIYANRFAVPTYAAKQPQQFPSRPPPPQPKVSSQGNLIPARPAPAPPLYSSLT
Excerpt: To measure the efficacy of the compound of Formula (I) in suppression of ADAM9 enzymatic activity, an ELISA system was established using recombinant human ADAM9 and a fluorescent peptide substrate (R&D system) in the experiment. Broad-spectrum MMP inhibitor-BB-94 was included as a positive control. The compounds of Formula (I) used in this experiment were the compound SW1 and the compound SW2.

leukocytes = experiment: anoikis in anchorage-free culture, leukocytes; format: cell-based; conditions: Leukocyte, read-out: IC50 value for anoikis (anchorage-free induced apoptosis)
Description: as §1

[9] = system: breast cancer brain metastatic cell line-MDA-231 brm; experiment: anoikis in anchorage-free culture, MDA-231brm; format: cell-based; conditions: read-out: IC50 value for anoikis (anchorage-free induced apoptosis)
Description: as §1

lung cancer cells (TC1) = experiment: cytotoxicity assay in TC1 cells; format: cell-based; set-up: key to effect of inhibiting tumor cell growth: “+” represents that the compound has the effect of inhibiting tumor cell growth; conditions: for IC50: TC-1
Method in brief: as §4

| SMILES | IC50 [1] [µM] | IC50 (PC-080) [µM] | IC50 (HPAC-GFP-Luc) [µM] | IC50 (PE10 WBC) [µM] | effect of inhibiting tumor cell growth (PE10 WBC) | planting efficiency, colony-forming assay (TC1-WT lung cancer cells [2]) | effect of inhibiting tumor cell growth [3] | IC50 [3] [µM] | IC50 (Panc-1) [µM] | IC50 [4] [µM] | effect of inhibiting tumor cell growth [4] | IC50 [5] [µM] | effect of inhibiting tumor cell growth [5] | cell apoptosis (Annexin V+ cells) (TC1-WT lung cancer cells [6]) | planting efficiency, colony-forming assay [7] | IC50 (Pan18-GFP-Luc) [µM] | migration ability (Bm7 lung cancer cells) | effect of inhibiting tumor cell growth (HNOF) | IC50 [8] [µM] | effect of inhibiting tumor cell growth (lung cancer cells (A549)) | other results |
| --- | --- | --- | --- | --- | --- | --- | --- | --- | --- | --- | --- | --- | --- | --- | --- | --- | --- | --- | --- | --- | --- |
| O=C1c2ccccc2C(=O)N1CCc1csc(Nc2nc(CCN3C(=O)c4ccccc4C3=O)cs2)n1 [SW1] | 20 | 446 | 126 | 14500 | + | greatly reduce the planting efficiency | + | 76.9 | 424 | 40.4 | + | 4.5 | + | induce cell apoptosis | greatly reduce the planting efficiency | 0.3 | significantly reduce the migration ability | + | 97.8 | + | IC50 (lung cancer cells (A549)): 434 µM; inhibition of ADAM9 activity (recombinant human ADAM9): decrease ADAM9 activity to a similar extent in a dose-dependent manner; IC50 (leukocytes): > 200 µM; IC50 [9]: 4.5 µM; effect of inhibiting tumor cell growth (lung cancer cells (TC1)): +; IC50 (lung cancer cells (TC1)): 80.4 µM |
| O=C(Nc1nc(CCN2C(=O)c3ccccc3C2=O)cs1)c1cc2ccccc2s1 [SW2] | 27 | 89.6 | 29.3 | 76.5 | + | greatly reduce the planting efficiency | + | 32 | 34.2 | 44.3 | + | 7.55 | + | induce cell apoptosis | greatly reduce the planting efficiency | 112 | significantly reduce the migration ability | + | 61.9 | + | IC50 (lung cancer cells (A549)): 458 µM; inhibition of ADAM9 activity (recombinant human ADAM9): decrease ADAM9 activity to a similar extent in a dose-dependent manner; IC50 (leukocytes): 76 µM; IC50 [9]: 7.5 µM; effect of inhibiting tumor cell growth (lung cancer cells (TC1)): +; IC50 (lung cancer cells (TC1)): 64.2 µM |
